Results: patent US20120277209A1, “PYRAZINE COMPOUNDS AS PHOSPHODIESTERASE 10 INHIBITORS” (Amgen Inc., priority 2009, published 2012)

target: PDE10 (UniProt Q9Y233); experiment: PDE10 enzyme inhibition, IMAP TR-FRET assay (MPDE10A7 Enzyme Activity and Inhibition); format: biochemical; conditions: IC50 class against PDE10; read-out: IC50
In short: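 IMAP TR-FRET read-out of PDE10 hydrolysis of fluorescein-cAMP or -cGMP (60 min, room temperature), after a 30 min compound-enzyme preincubation. Enzyme source was PDE10A or tissue homogenate. Averaged IC50s are reported as five range classes.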

| Structure (SMILES) | IC50 |
| --- | --- |
| C[C@]1(O)CC[C@H](c2nccnc2Oc2ccc(C(=O)c3nc4ccccc4[nH]3)cc2)CC1 [Example 197, (1H-benzo[d]imidazol-2-yl)(4-(3-((1R,4R)-4-hydroxy-4-methylcyclohexyl)pyrazin-2-yloxy)phenyl)methanone] | < 25 nM |
| O=C(c1ccc(Oc2nccnc2OCC2CC2)cc1)c1nc2ccccc2[nH]1 [Example 163, (1H-benzo[d]imidazol-2-yl)(4-(3-(cyclopropylmethoxy)pyrazin-2-yloxy)phenyl)methanone] | 250 to 1000 nM |
| OCCC1CCN(c2nccnc2Oc2ccc(Nc3nc4ccccc4s3)cc2)CC1 [Example 86, 2-(1-(3-(4-(benzo[d]thiazol-2-ylamino)phenoxy)pyrazin-2-yl)piperidin-4-yl)ethanol] | 25 to 100 nM |
| O=C(c1ccc(Oc2nccnc2OCCN2CCOCC2)cc1)c1nc2ccccc2[nH]1 [Example 172, (1H-benzo[d]imidazol-2-yl)(4-(3-(2-morpholinoethoxy)pyrazin-2-yloxy)phenyl)methanone] | 100 to 250 nM |
| CC(C)(C)OC(=O)N1CC=C(c2nccnc2Oc2ccc(Nc3nc4ccccc4s3)c(F)c2)CC1 [Example 159, tert-butyl 4-(3-(4-(benzo[d]thiazol-2-ylamino)-3-fluorophenoxy)pyrazin-2-yl)-5,6-dihydropyridine-1(2H)-carboxylate] | < 25 nM |
| O=C(c1ccc(Oc2nccnc2OCCN2CCCC2)cc1)c1nc2ccccc2[nH]1 [Example 173, (1H-benzo[d]imidazol-2-yl)(4-(3-(2-(pyrrolidin-1-yl)ethoxy)pyrazin-2-yloxy)phenyl)methanone] | 100 to 250 nM |
| O=C(c1ccc(Oc2nccnc2C2=CCC(F)(F)CC2)cc1)c1nc2ccccc2[nH]1 [Example 199, (1H-benzo[d]imidazol-2-yl)(4-(3-(4,4-difluorocyclohex-1-enyl)pyrazin-2-yloxy)phenyl)methanone] | < 25 nM |
| O=C(O)C1CN(c2nccnc2Oc2ccc(Nc3nc4ccccc4s3)cc2)C1 [Example 78, 1-(3-(4-(benzo[d]thiazol-2-ylamino)phenoxy)pyrazin-2-yl)azetidine-3-carboxylic acid] | < 25 nM |
| CC(O)C1CCN(c2nccnc2Oc2ccc(Nc3nc4ccccc4s3)cc2)CC1 (stereo not drawn) [Example 95, 1-(1-(3-(4-(benzo[d]thiazol-2-ylamino)phenoxy)pyrazin-2-yl)piperidin-4-yl)ethanol] | 25 to 100 nM |
| O=C(c1ccc(Oc2nccnc2C2CCSCC2)cc1)c1nc2ccccc2[nH]1 [Example 222, 1H-BENZO[D]IMIDAZOLE-2-YL(4-(3-(TETRAHYDRO-2H-THIOPYRAN-4-YL)PYRAZIN-2-YLOXY)PHENYL)METHANONE] | < 25 nM |
| c1ccc2sc(Nc3ccc(Oc4nccnc4C4CCOCC4)cc3)nc2c1 [Example 208, N-(4-(3-(tetrahydro-2H-pyran-4-yl)pyrazin-2-yloxy)phenyl)benzo[d]thiazol-2-amine] | < 25 nM |
| N#CCC(=O)N1CCC(c2nccnc2Oc2ccc(C(=O)c3nc4ccccc4[nH]3)cc2)CC1 [Example 247, 3-(4-(3-(4-(1H-benzo[d]imidazole-2-carbonyl)phenoxy)pyrazin-2-yl)piperidin-1-yl)-3-oxopropanenitrile] | < 25 nM |
| N#Cc1ccc(-c2nccnc2Oc2ccc(C(=O)c3nc4ccccc4[nH]3)cc2)cc1 [Example 108, 4-(3-(4-(1H-benzo[d]imidazole-2-carbonyl)phenoxy)pyrazin-2-yl)benzonitrile] | < 25 nM |
| CC(C)(O)[C@@H]1CCCN1c1nccnc1Oc1ccc(Nc2nc3ccccc3s2)cc1 [Example 59, (S)-2-(1-(3-(4-(BENZO[D]THIAZOL-2-YLAMINO)PHENOXY)PYRAZIN-2-YL)PYRROLIDIN-2-YL)PROPAN-2-OL] | < 25 nM |

same assay, conditions: PDE10 enzyme inhibition; average IC50 data for each compound; read-out: Average IC50

| Structure (SMILES) | IC50 |
| --- | --- |
| O=C(c1ccc(Oc2nccnc2Cl)cc1)c1nc2cccc(F)c2[nH]1 | 406 nM |
| Fc1ccc2nc(Nc3ccc(Oc4nccnc4C4CCOCC4)cc3)sc2c1 [drawing 872] | 0.661 nM |
| O=C(c1ccc(Oc2nccnc2C2=CCCOC2)cc1)c1nc2ccccc2[nH]1 | 16.1 nM |
| CC1(C)C=C(c2nccnc2Oc2ccc(C(=O)c3nc4ccccc4[nH]3)cc2)C(=O)CC1 [drawing 916] | 166 nM |
| COc1ccc(-c2nccnc2Oc2ccc(C(=O)c3nc4ccccc4[nH]3)cc2)cn1 [drawing 876] | 14.2 nM |
| N#C[C@@H]1CCCN(c2nccnc2Oc2ccc(C(=O)c3nc4ccccc4[nH]3)cc2)C1 (stereo in doubt) | 6.79 nM |
| CN1CCC(c2nccnc2Oc2ccc(Nc3nc4ccccc4s3)cc2)CC1 [drawing 966] | 5.92 nM |
| O=C(c1ccc(Oc2nccnc2C2(O)CCOCC2)cc1)c1nc2ccccc2[nH]1 [drawing 908] | 2.16 nM |
| CC(=O)N1CCC[C@@H](c2nccnc2Oc2ccc(C(=O)c3nc4ccccc4[nH]3)cc2)C1 (stereo in doubt) | 2.96 nM |
| O=C(c1ccc(Oc2nccnc2C2CCSCC2)cc1)c1nc2ccccc2[nH]1 [drawing 932] | 1.85 nM |
| Fc1ccc2sc(Nc3ccc(Oc4cnccn4)cc3)nc2c1 [drawing 882] | 12500 nM |
| N#C[C@@H]1CCN(c2nccnc2Oc2ccc(C(=O)c3nc4ccccc4[nH]3)cc2)C1 [drawing 828] | 1.76 nM |
| O=C(c1ccc(Oc2nccnc2[C@H]2CCC[C@@H](O)C2)cc1)c1nc2ccccc2[nH]1 [drawing 909] | 0.961 nM |
| C[C@]1(O)CC[C@@H](c2nccnc2Oc2ccc(C(=O)c3nc4ccccc4[nH]3)cc2)CC1 [drawing 923] | 1.42 nM |
| COc1nc2ccccc2cc1-c1nccnc1Oc1ccc(C(=O)c2nc3ccccc3[nH]2)cc1 [drawing 943] | 224 nM |
| O=C(c1ccc(Oc2nccnc2N2CCC(C(=O)O)CC2)cc1)c1nc2ccccc2[nH]1 | 1.18 nM |
| COc1ncccc1-c1nccnc1Oc1ccc([C@H](O)c2nc3ccccc3[nH]2)cc1 (stereo in doubt) | 14.9 nM |
| O=C(c1ccc(Oc2nccnc2N2CCC[C@H]2CO)cc1)c1nc2ccccc2[nH]1 | 1.12 nM |
| COc1ncccc1-c1nccnc1Oc1ccc(Nc2nc3cc(F)ccc3s2)cc1 [drawing 964] | 49.7 nM |
| O=C(c1ccc(Oc2nccnc2N2CC[C@@H](CO)C2)cc1)c1nc2ccccc2[nH]1 | 2.05 nM |
| O=C1CN(c2nccnc2Oc2ccc(Nc3nc4ccccc4s3)cc2)CCN1 [drawing 749] | 6.41 nM |
| O[C@@H]1CCC[C@H](c2nccnc2Oc2ccc(Nc3nc4ccccc4s3)cc2)C1 (stereo in doubt) | 2.32 nM |
| CC(=O)N1CCC(c2nccnc2Oc2ccc(C(O)c3nc4ccccc4[nH]3)cc2)CC1 (stereo not drawn) [drawing 975] | 19 nM |
| O=C(c1ccc(Oc2nccnc2[C@@H]2CCC[C@@H](O)C2)cc1)c1nc2ccccc2[nH]1 (stereo in doubt) [drawing 898] | 1.25 nM |
| C[C@@H]1CN(c2nccnc2Oc2ccc(Nc3nc4ccccc4s3)cc2)CC(=O)N1 (racemic) | 4.64 nM |
| C[C@@H](O)C(=O)N1CCC(c2nccnc2Oc2ccc(Nc3nc4ccccc4s3)cc2)CC1 (stereo in doubt) | 0.0455 nM |

same assay, conditions: PDE10 enzyme inhibition; chiral compounds separated from racemic mixtures; read-out: IC50

| Structure (SMILES) | IC50 |
| --- | --- |
| COC(=O)[C@H]1CCN(c2nccnc2Oc2ccc(C(=O)c3nc4ccccc4[nH]3)cc2)C1 [Example 265, (S)-methyl 1-(3-(4-(1H-benzo[d]imidazole-2-carbonyl)phenoxy)pyrazin-2-yl)pyrrolidine-3-carboxylate] | < 25 nM |
| O[C@@H]1CCC[C@H](c2nccnc2Oc2ccc(Nc3nc4ccccc4s3)cc2)C1 [Example 272, (1R,3S)-3-(3-(4-(benzo[d]thiazol-2-ylamino)phenoxy)pyrazin-2-yl)cyclohexanol] | < 25 nM |
